Experimental data from patent publication US10232043B2, “Photoactivated molecules for light-induced modulation of the activity of electrically excitable cells and methods of using the same” (UNIVERSITY OF SOUTHERN CALIFORNIA, priority 2015, dated 2019).
Entries after “also recorded” stand apart in the source; their conditions may differ.

Key:
chromaffin cells = experiment: Cell-attached patch test for membrane perforation; type: cell-based, mouse; conditions: in patch pipette, RubpyC17 18 μM, 10 min, amphotericin B within 5 min
From the text: FIGS. 21A-21H depict data from various experiments related to characteristics of RubpyC17-loaded cells. […] Inset images shown to the right of trace confirmed proper integration of RubpyC17 in patched cells. FIGS. 21C-21E show the light-induced action potential firing in chromaffin cells was not due to biophysical changes in voltage-gated ion channels as there were no significant changes in current-voltage relationships (21C-21D) nor in steady-state activation curve (21E) in RubpyC17-loaded chromaffin cells before (open circle) or during (open circle) light illumination. […] Peak inward currents from each stimulation jump were plotted against corresponding stimulating voltages (n=6). […] Data from representative cell is shown (n=5). […] Currents resulting from capacitor-like behavior of chromaffin cell membranes during hyperpolarizing jumps to −85 mV from a resting membrane potential of −80 mV were recorded 5 min following giga-seal formation for amphoterecin B (bottom trace) or 10 min following giga-seal formation for RubpyC17 (top trace).
Finally, to test whether illumination of RubpyC17 incorporated in cell membranes causes nonspecific membrane poration or other damage, 18 μM RubpyC17 was loaded inside a patch pipette and attached to a cell (gigaseal formation) in the cell-attached configuration. This is the same configuration used routinely for perforated-patch recording. […]

INS cells = experiment: Whole cell patch clamp, current-clamp membrane potential under light; type: cell-based, rat; conditions: for light-induced increase of membrane potential: 488 nm
Method: (§1) Membrane potential was monitored using whole cell patch clamp in current-clamp mode. Cultured cells (INS and HEK293) were plated on a glass-bottomed culture dishes 1-3 days prior to recording. Cells were incubated in standard extracellular solution with or without 10 μM RubpyC17 compound for approximately 1.5-2 minutes, then washed and incubated with standard extracellular solution without additional supplementation, or with 2-5 mM ascorbate, 100 μM sodium ferrocyanide, or 100-200 μM potassium ferricyanide, as indicated. The chamber was transferred to the microscope stage. Extracellular solution consisted of 140 mM NaCl, 2.8 mM KCl, 10 mM HEPES, 1 mM MgCl2, 2 mM CaCl2, 10 mM glucose, pH adjusted to 7.3, and osmolarity adjusted to 300-310. Conventional whole-cell patch clamp recordings were performed with an EPC-9 amplifier and Pulse software (HEKA Electronics). Pipette electrodes of 1.8-3.5 Mohm were fire polished before use. Intracellular solution consisted of: 145 mM KCl, 10 mM NaCl, 1 mM MgCl2, 1 mM EGTA, 2 mM ATP, 0.3 mM GTP and 10 mM HEPES, pH adjusted to 7.3 and osmolarity adjusted to 290-300 mOsm. To monitor changes in membrane voltage/potential, cells were patch clamped in current-clamp mode. Access resistances were in the range of 3-8 Mohm. Using Pulse, membrane potentials were recorded before, during and after illumination by the argon ion laser at 488 nm with an irradiance value of 0.458 mE s^−1 m^−2 or by a xenon lamp source through a 470/40 nm bandpass excitation filter with an irradiance value of 0.480 mE s^−1 m^−2. The duration of illumination varied and the timing is indicated by bars on the figures.
Initial attempts were tied to INS and HEK cells, both cells that are not excitable under normal conditions (INS cells were maintained in low glucose <3 mM to prevent action potentials). The cells were incubated in 10 μM of RubpyC17 compound for approximately 2 minutes then washed with standard extracellular solution, supplemented with 2 mM ascorbate. It was hypothesized that when RubpyC17 is incorporated into the cell membrane, illumination would induce accumulation of negative charges at the outer face of the cell membrane, due to transfer of an electron from ascorbate to the photoactivated RubpyC17 resulting in membrane depolarization. To monitor the plasma membrane potential, the cells were patch-clamped in whole-cell configuration in current-clamp mode and membrane voltages were recorded while illuminating the cell at 488 nm (0.46-0.48 mE s^−1 m^−2), though other wavelengths are useful, depending on the embodiment.

HEK293T cells = experiment: as above; type: cell-based, human
Method: as §1, with “The duration of illumination varied and the timing is indicated by bars on the figures.” left out
Initial attempts were tied to INS and HEK cells, both cells that are not excitable under normal conditions (INS cells were maintained in low glucose <3 mM to prevent action potentials). […] To monitor the plasma membrane potential, the cells were patch-clamped in whole-cell configuration in current-clamp mode and membrane voltages were recorded while illuminating the cell at 488 nm (0.46-0.48 mE s^−1 m^−2), though other wavelengths are useful, depending on the embodiment. […]

[1] = system: cell lines and primary cells; experiment: Cell tolerance to RubpyC17 incubation (gigaseal stability, viability); type: cell-based
Method: However, in several embodiments, other organic ligands coupled to other transition metals are also used, with reduced and/or non-existent adverse side effects. […] Excessive and prolonged whole cell incubation with RubpyC17 (e.g., >10 μM for >5 min) may result in cell toxicity, since a stable gigaseal cannot be stably maintained in those cells. At this time, the mechanism behind the adverse effects on cell health upon RubpyC17 overexposure is not yet fully known. Since perforation was not achieved when a small patch of membrane was exposed to a high dose of RupbyC17, it was hypothesized that when an entire cell is overexposed to RubpyC17, there may be sufficient random interactions between excess RubpyC17 complex and endogenous surface molecules (i.e., proteins, carbohydrates, sugars), triggering signals that lead to cell health deterioration. However, when used in its appropriate dose range (e.g., <about 10 μM for cell lines and <about 2 μM for primary cells, according to one embodiment), RubpyC17 is tolerated by cells and consistently confers light sensitivity.

SMILES: CCCCCCCCCCCCCCCCCc1ccnc(-c2cc(C)ccn2)c1.F[P-](F)(F)(F)(F)F.F[P-](F)(F)(F)(F)F.[Ru+2].c1ccc(-c2ccccn2)nc1.c1ccc(-c2ccccn2)nc1 [RubpyC17, [Ru(bpy)2(bpy-C17)](PF6)2]
- capacitive charging transient (membrane perforation) (chromaffin cells): an increase in the capacitive charging transient was not detected; also recorded: did not perforate chromaffin cells
- continuous illumination required to reach maximum light-triggered depolarization (INS cells; 0.46-0.48 mE s−1 m2, FIGS. 18B-18F): ~30 s
- light-induced increase of membrane potential (INS cells; INS cells, 10 μM ~2 min, 2 mM ascorbate): 15.9 ± 4.6 mV
- light-induced increase of membrane potential (INS cells; INS cells, absence of ascorbate): 9.8 ± 4.5 mV
- light-triggered depolarization with non-permeating ions (INS cells; INS cells, cesium and NMDG instead of potassium and sodium): still persisted
- illumination time at which cells undergo membrane potential change (INS cells; oxidants (ferricyanide) present, FIG. 18A): ≥ 10 s
- reversibility of light-induced depolarization (INS cells; presence of reductants): appears to be irreversible
- illumination time at which cells undergo membrane potential change (INS cells; reductants (ascorbate) present, INS and HEK293T (FIG. 18A)): ≥ 25 s
- light-induced hyperpolarization (HEK293T cells; 100 uM ferricyanide in extracellular solution): 20.9 ± 4.9 mV
- light-induced depolarization with ferrocyanide as reductant (HEK293T cells; HEK293T, 0.1 mM ferrocyanide): light-induced depolarization was also observed
- light-induced depolarization (HEK293T cells; HEK293 cells, presence of ascorbate): 14.6 ± 2.4 mV
- dose range tolerated by cells ([1]; cell lines): < 10 µM
- viability after incubation ([1]; chromaffin cells, ~30 min with RubpyC17): continued viability of chromaffin cells
- whole cell incubation concentration that may result in cell toxicity ([1]; for >5 min, stable gigaseal not maintained): > 10 µM
- dose range tolerated by cells ([1]; primary cells): < 2 µM
